Series [1] can be described thus: Metabolite identification in rat blood, urine and feces (UHPLC-MS/MS). The class given is in vivo, Sprague-Dawley rats. More on the design: key: B, U and F represent blood, urine and feces samples, respectively; B, U and F represent blood, urine and feces samples, respectively; B, U and F represent blood, urine and feces samples, respectively. To be noted: rats dosed orally with 20 mg/kg liposomes-encapsulated tHGA, samples over 24 h. The method, then: Groups 4 to 6 were used for single-dose drug metabolism study. Each rat was kept in individual metabolic cages. Urine and faeces were collected from each rat in the tHGA-treated group 4 and control group 5 at four different times over a period of 24 h. The samples were stored at −80 °C until further analysis. For the determination of plasma metabolites, blood was sampled from each rat in the control group 6, according to the same procedure as in the pharmacokinetic study. Blood samples collected from the tHGA-treated group 2 in the pharmacokinetics study were also used for the metabolism study.
For the drug metabolism study, for each rat, plasma samples collected over a period of 24 h were combined and tHGA was similarly extracted from the samples. For the urine samples, for each rat, samples collected over the 24 h period were combined and centrifuged for 15 min at 14,000 rpm. The supernatant was then vacuum-evaporated at 40 °C to a volume of 5 mL, after which, 30 mL methanol was added, the mixture sonicated for 25 min, followed by centrifuging at 10,000 rpm for 15 min. The supernatant was again vacuum-concentrated at 40 °C, to a volume of 5 mL, filtered through 0.45 μm membrane filter into an LC-MS vial and then injected (10 µL) to UHPLC-MS/MS system for spectral acquisition.
[…] collected over 24 h was homogenized with distilled water in the ratio of 1 g to 3 mL and sonicated for 10 min. From this mixture, 3 mL was taken and mixed with 9 mL methanol. After that, the mixture was sonicated for 30 min and then centrifuged at 14,000 rpm for 15 min. The supernatant was taken to dryness using a rotary evaporator at 40 °C. The residue was then reconstituted in 1 mL ACN (80%), filtered through 0.45 μm membrane filter, and injected to the UHPLC-MS/MS system for acquisition of spectra.
For the identification of tHGA and its metabolites simultaneously, MS detection was operated under a heated electrospray ion source (H-ESI II) using positive/negative switching ionization mode to maximize metabolite coverage in every injection. The H-ESI parameters were optimized as follows: spray voltage (+) and (−) 4.2 and 3.5 kV respectively, capillary temperature 320 °C, S-lens RF level 55, sheath gas flow rate 45, auxiliary gas 10 and sweep gas 2 (manufacturer’s units). Nitrogen was used for the source, Orbitrap bath gas, and the higher energy collision dissociation (HCD) cell collision. The full-scan MS data were recorded across the mass range of 50–1500 m/z. The resolution was 70,000 (FWHM) at m/z 200, with automatic gain control (AGC) target of 1 × 10^6 ions and an auto maximum ion injection time (IT).
All MS data acquired using the Q Exactive MS were controlled by Xcalibur 4.0 software (Thermo Fisher Scientific). The MS data from plasma-, urine-, and feces-treated, as well as the control samples were analyzed using Compound Discoverer software 2.1 (Thermo Fisher Scientific) for the identification of tHGA metabolites. The software extracted information about metabolite m/z values depending on a list of expected metabolites. As no standards or literature information were available to confirm tHGA metabolites structure, tentative elucidation of the metabolites was performed according to Schymanski classification. A list of putative metabolites with the probable metabolism pathway was created for peaks based on MS, MS/MS fragmentation and the isotopic pattern of tHGA. The matching percentage between measured and theoretical MS/MS spectra was determined depending on the existence/absence of theoretical fragments in the MS/MS spectra generated experimentally. In addition, the site of metabolism was determined based on the tHGA structure with the help of a web server site for metabolism predictor [27, 28].

Series [2] can be described thus: Single-dose pharmacokinetic study of free and liposome-encapsulated tHGA in rats (plasma, LC-HRMS). Format: in vivo, Sprague-Dawley rats. To be noted: for Fr (relative oral bioavailability): PO 20 mg/kg relative to IP 20 mg/kg tHGA-loaded liposomes, rats. Here is the method:
Thirty healthy male Sprague-Dawley (S.D.) rats, weighing between 180 and 225 g on the day of dosing, were kept in polypropylene cage base with stainless steel wire top clips for three days before the experiment. The living environment of the animals was controlled as follows: 12/12-h dark/light cycle, temperature maintained between 22 to 25 °C, daily feeding with commercial pellet food, and tap water. Rats were fasted 12 h before dosing and labeled with a designated number at the base of their tails. The rats were then randomly divided into six groups as follows: • Group 1 (n = 6) were dosed orally with 20 mg/kg of free tHGA. • Group 2 (n = 6) were dosed orally with 20 mg/kg of liposomes-encapsulated tHGA. • Group 3 (n = 6) were dosed intraperitoneally with 20 mg/kg of liposomes-encapsulated tHGA • Group 4 (n = 4) were dosed orally with 20 mg/kg of liposomes-encapsulated tHGA. • Group 5 (n = 4, control) were dosed orally with blank liposomes formulation (for urine and feces collection). • Group 6 (n = 4, control) were dosed orally with blank liposomes formulation (for blood collection).
Groups 1 to 3 were used for the single-dose pharmacokinetic study. An aliquot of 200 µL of blood was drawn from each rat via the tail vein into polypropylene tubes containing a disodium K2EDTA solution (10%) as an anticoagulant at the pre-specified time points; at 0.25, 0.5, 1.5, 2, 4, 8 and 24 h for groups 1 and 2 after PO dose, and at 0.08, 0.5, 1.5, 2, 4, 8 and 24 h for group 3 after IP dose. Blood samples were centrifuged at 14,000 rpm at 20 °C for 10 min to separate the plasma which was then stored under −80 °C until further analysis. Animals were allowed to feed two hours after the first sample time point.
For the pharmacokinetic study, the same procedure used in the preparation of the standard solutions was used to extract tHGA from plasma samples.
LC-MS analysis was performed using a Thermo Scientific™ Q Exactive™ Focus Hybrid Quadrupole-Orbitrap™ Mass Spectrometer (Thermo Fisher Scientific, Bremen, Germany) attached to a Thermo Scientific Dionex Ultimate 3000 Series RS pump coupled with a Thermo Scientific Dionex Ultimate 3000 Series TCC-3000RS column compartments and a Thermo Fisher Scientific Ultimate 3000 Series WPS-3000RS autosampler (Thermo Fisher Scientific, Sunnyvale, CA, USA) controlled by Xcalibur Software 4.0 (Thermo Fisher Scientific, Waltham, MA, USA). The chromatographic separation was carried out using a Hypersil GOLD C18 column (100 × 2.1 mm, 1.9 μm) (Thermo Fisher Scientific, Waltham, MA, USA) and the mobile phase consisted of water with 0.1% formic acid (solvent A) and acetonitrile with 0.1% formic acid (solvent B). Gradient elution was run at 0.3 mL/min, with 10% solvent B at the start (t = 0 min), increasing to 70% solvent B at t = 5 min. The gradient was then maintained for 3 min at 70% solvent B until t = 8 min before again increasing solvent B to 100% until the end of the run at t = 9.5 min. The temperature of the autosampler was set to 4 °C. For the metabolism study, the same chromatographic conditions were used with a different elution system. A linear gradient elution from 0% to 100% of solvent B for 45 min was used.
Mass spectrometric detection was operated under a heated electrospray ion source (H-ESI II) in negative ionization mode. The H-ESI parameters were optimized as follows: spray voltage 3.5 kV, capillary temperature 320 °C, S-lens RF level 55, sheath gas flow rate 45, auxiliary gas 10 and sweep gas 2 (manufacturer’s units). Nitrogen was used for the source, Orbitrap bath gas, and the higher energy collision dissociation (HCD) cell collision. A targeted SIM data-dependent MS/MS (tSIM/ddMS2) acquisition was used with an inclusion mass list containing m/z and retention time of tHGA. The resolution was 35,000 (FWHM) at m/z 200, with automatic gain control (AGC) target of 5 × 10^4 ions and an auto maximum ion injection time (IT). […]

The nature of series [3]: Short- and long-term stability of tHGA in rat plasma QC samples. Format: in vitro ADME. To be noted: for Stability RE (%) Short-Term (4 °C): processed rat plasma sample, autosampler 4 °C, 24 h; for Stability RE (%) Short-Term (4 °C) / Stability RE (%) Long-Term (−80 °C): n = 6; for Stability RE (%) Long-Term (−80 °C): rat plasma, 1 month. The method, then:
Short- and long-term stability studies of tHGA in plasma was assessed using six replicates at two concentration levels, LQC and HQC. The QC samples were analyzed against the standard curve which was freshly prepared. The short-term stability was evaluated by analyzing the processed QC samples kept in the autosampler (4 °C) for 24 h. For long-term stability, tHGA plasma samples in low and high concentrations were stored at −80 °C for 1 month.

Setting [4] is: PO, 20 mg/kg, male S.D rats, plasma, mean n = 6, listed as Free tHGA.

Like-named read-outs stand apart in the source and are kept apart here.

Regarding `CC(=O)c1c(O)cc(O)c(C/C=C(\C)CCC(O)C(C)(C)O)c1O` (stereo not drawn) [M10], the “Source (sample in which the metabolite was detected)” value (“Source” for short) in series [1] is recorded as “F”.

On to `CC(=O)c1c(O)cc(O)c(C(O)/C=C(\C)CCC=C(C)C)c1O` (stereo not drawn) [M3], for which, in series [1], the “Source” value is on record as “F, U”.

`CC(=O)c1c(O)cc(O)c(C(O)/C=C(C)/C=C/C(O)=C(C)C)c1O` (stereo not drawn) [M6]: in series [1], the “Source” value is listed as “F, B”.

As to `CC(=O)c1c(O)cc(O)c(C/C=C(\C)CCC=C(C)C)c1O` [tHGA, 2,4,6-trihydroxy-3-geranylacetophenone], the “Fr (relative oral bioavailability)” value in series [2] (listed as Free tHGA) worked out at 9.07%; in series [2] (listed as unformulated tHGA) it was 9.1%. Further, the Cmax in series [2] (setting [4]) was 5.35 ng/mL; in series [2] (male, Sprague-Dawley, rat, plasma, po, 20 mg/kg, PO, male S.D rats, plasma, mean n = 6, read-out: Cmax), 5.4 ng/mL. The “t1/2 (elimination half-life)” value in series [2] (setting [4]) was found to be 6.95 h. In addition, the Tmax in series [2] (Sprague-Dawley, rat, PO, 20 mg/kg, male S.D rats, plasma, mean n = 6) was 0.25 h. In addition, the AUC(0-t) in series [2] (male, Sprague-Dawley, rat, plasma, 20 mg/kg, oral administration, rats (unit as printed in abstract), read-out: AUC0–24) turned out to be 17.6 ng·h/mL. For the same compound, the half-life in series [2] (male, Sprague-Dawley, rat, plasma, po, 20 mg/kg, PO, male S.D rats, plasma, mean n = 6, read-out: t1/2 (elimination half-life) (converted)) is 6.9 h. The “Stability RE (%) Short-Term (4 °C)” value in series [3] (1.5 ng/mL tHGA (LQC)) is on record as −4.66 ± 11.9%; in series [3] (70 ng/mL tHGA (HQC)), 5.34 ± 6.9%. Further, the “Stability RE (%) Long-Term (−80 °C)” value in series [3] (1.5 ng/mL tHGA (LQC)) is on record as 5.93 ± 2.8%; in series [3] (70 ng/mL tHGA (HQC)), 5.34 ± 5.1%. Moreover, the “long-term stability, accuracy” value in series [3] (LQC and HQC plasma samples, 1 month at −80 °C) is given as 5.3–5.9%.

Consider `CC(=O)c1c(O)cc(O)c(C/C=C(\C)CCC(O)=C(C)C)c1O` [M2], for which the “Source” value in series [1] is recorded as “F, U”.

Turning to `CC(=O)c1c(O)cc(O)c(C/C=C(C)/C=C/C=C(C)C)c1O` [M7], the “Source” value in series [1] is recorded as “F”.

For `CC(=O)c1c(O)cc(OS(=O)(=O)O)c(C(O)/C=C(\C)CCC(O)=C(C)C)c1O` (stereo not drawn) [M9], in series [1], the “Source” value is listed as “B”.

As for `CC(=O)c1c(O)cc(O)c(C/C=C(\C)CCCC(C)(C)O)c1O` [M5], the “Source” value in series [1] is given as “F”.

As for `CC(=O)c1c(O)cc(O)c(C(O)/C=C(\C)CCC(O)=C(C)C)c1O` (stereo not drawn) [M4], the “Source” value in series [1] is recorded as “F”.

What is called Cmax is the maximum level reached in the sampled fluid or tissue. As usually defined, the Tmax is the time from dosing to the highest level.

The values above are taken from paper PMC7412073, “Pharmacokinetics and Metabolism of Liposome-Encapsulated 2,4,6-Trihydroxygeranylacetophenone in Rats Using High-Resolution Orbitrap Liquid Chromatography Mass Spectrometry” (Molecules, 2020).
